Data: patent US20160031868A1, “BENZIMIDAZOLONE DERIVATIVES AS BROMODOMAIN INHIBITORS” (GILEAD SCIENCES, INC., priority 2013, published 2016)

Assays:
BRD4-2 = biological target: T1, BRD4-2 (Homo sapiens, UniProt O60885); assay: Biochemical HTRF (TR-FRET) assay: BRD4-2 binding to acetylated histone H4 peptide; details: 200 nM H4 peptide, 120 nM BRD4-2, 60 min at 25 °C; geometric mean; read-out: IC50 HTBS BRD4-2 HTRF
T1 construct: made in house; host or cells: Escherichia coli
Procedure: (§1) Binding of the two tandem bromodomains, BRD4 I and BRD4—2, to an acetylated histone H4 peptide were measured using a homogeneous time resolved fluorescence resonance energy transfer (TR-FRET) assay. The synthetic peptide containing amino acids 1-18 of histone H4 was acetylated at lysine 5, 8, 12, 16 and conjugated to biotin ([…]-GSGSK-biotin) was purchased from Millipore. BRD4_I and BRD4—2 were expressed and purified from Escherichia coli as N-terminal His6-tagged proteins. An XL665 labeled anti-His antibody (Cisbio) was used to specifically bind BRD4 and a cryptate labeled streptavidin protein was used because it specifically recognized the biotinylated H4 peptide. […] Assays were performed in 50 mM Hepes (pH 7.5), 150 mM NaCl, 0.1 mg/ml BSA, 0.01% (v/v) Brij, 0.5% (v/v) DMSO and 200 nM H4 peptide at the following concentrations for each BRD4 isoform: 60 nM BRD4—1 and 120 nM BRD4—2. After an assay reaction time of 60 minutes at 25° C., binding was measured with 2 nM cryptate labeled streptavidin and 10 nM anti-His-XL665 antibody. TR-FRET signal was detected on an Envision plate reader (Ex: 320 nm; Em: 615/665 nm; 100 μs delay and 200 μs read window). Data were normalized based on a positive (2 μM I-BET) and negative (DMSO) controls and IC50 values were calculated from the fit of the dose-response curves to a four-parameter equation. All IC50 values represent geometric mean values of a minimum of four determinations. These assays generally produced results within 3-fold of the reported mean.

[1] = MT-4 proliferation assay in 384-well format (Cell Titer Glo); format: cell-based, human; details: human, MT-4 cells, Table 1, 50% decrease in luminescence signal, read-out: CC50 MT4 384
Procedure: (§2) Compounds were tested in a standardized high-throughput 384-well assay format. Each compound was serially diluted 3-fold in 100% DMSO in polypropylene 384-well plates using a Biomek FX Workstation, and 0.4 μL compound added to an assay plate containing 40 μL RPMI media. Compounds were arranged in a horizontal pattern, with 10 concentrations per compound, and 8 compounds added per plate. Due to low DMSO tolerability, the final DMSO concentration never exceeded 0.5% (v/v). Each assay plate contained 10 μM Puromycin and 0.5% DMSO in RPMI-1640 as positive and negative controls respectively. MT-4 cells (HTLV-1 transformed, human T lymphoblastoid cells, NIH Aids Reagent program) were added in volumes of 35 μL per well and 2,000 cells per well using a Biotek uFlow Workstation (Biotek, Winooski, Vt.), and the plates subsequently incubated for 5 days at 37° C. in an incubator set at 5% CO2 and 90% humidity.
(§3) After 5 days, 22 μL Cell Titer Glo (Promega) was added to the assay plates with a Biotek uFlow Workstation. Plates were subsequently placed on a Perkin Elmer Envision Plate Reader for 5 minutes before the luminescence signal was read. CC50 values were calculated from the compound concentration that caused a 50% decrease in luminescence signal, a measure of toxicity, and calculated by non-linear regression using Pipeline Pilot software (Accelrys, San Diego, Calif.).

BRD4-1 [2] = biological target: T2, BRD4-1 (Homo sapiens, UniProt O60885); assay: Biochemical ALPHA assay: binding of BRD4_1 to acetylated histone H4 peptide; details: 200 nM H4 peptide, 15 nM BRD4_1, 60 min at 25 °C; geometric mean of min. four determinations
T2 construct: made in house; host or cells: Escherichia coli
Procedure: Binding of the bromodomain BRD4_I to an acetylated histone H4 peptide was measured using a bead based Amplified Luminescent Proximity Homogeneous Assay (ALPHA). The synthetic peptide containing amino acids 1-18 of histone H4 was acetylated at lysine 5, 8, 12, 16 and conjugated to biotin ([…]-GSGSK-biotin) was purchased from Millipore. BRD4_I was expressed and purified from Escherichia coli as an N-terminal Hiss-tagged protein. Nickel-Chelate ALPHA acceptor beads (Perkin Elmer) were used to specifically bind BRD4—1 and ALPHA streptavidin donor beads (Perkin Elmer) were used because they specifically recognized the biotinylated H4 peptide. […] Assays were performed in 50 mM Hepes (pH 7.5), 150 mM NaCl, 0.1 mg/ml BSA, 0.01% (v/v) Brij, 0.5% (v/v) DMSO, 200 nM H4 peptide and 15 nM of BRD4—1 protein. After an assay reaction time of 60 minutes at 25° C., binding was measured with 20 µg/ml streptavidin donor beads and 20 μg/ml nickel-chelate acceptor beads. ALPHA signal was detected on an Envision plate reader ([…]; Em: 570 nm; Ex time: 180 ms). Data were normalized based on a positive (2 μM I-BET) and negative (DMSO) controls and IC50 values were calculated from the fit of the dose-response curves to a four-parameter equation. All IC50 values represent geometric mean values of a minimum of four determinations. These assays generally produced results within 3-fold of the reported mean.

BRD4-1 [3] = biological target: T2, BRD4-1; assay: Biochemical HTRF (TR-FRET) assay: BRD4-1 binding to acetylated histone H4 peptide; details: 200 nM H4 peptide, 60 nM BRD4-1, 60 min at 25 °C; geometric mean; read-out: IC50 HTBS BRD4-1 HTRF
Procedure: as §1

MT-4 cells = assay: MT-4 proliferation assay in 384-well format (Cell Titer Glo); format: cell-based, human; details: Table 1, 5 days, 50% decrease in luminescence signal, read-out: CC50 MT4 384
Procedure: as §2, §3

| Compound | IC50 (BRD4-2) | CC50 at 5 days [1] | IC50 (BRD4-1 [2]) | IC50 (BRD4-1 [3]) | CC50 (MT-4 cells) |
| --- | --- | --- | --- | --- | --- |
| Cc1noc(C)c1-c1cc(-c2cccnc2-c2ccccc2)c2[nH]c(=O)[nH]c2c1 [Example 4, 6-(3,5-dimethylisoxazol-4-yl)-4-(2-phenylpyridin-3-yl)-1H-benzo[d]imidazol-2(3H)-one] | 141 nM | 103 nM | 37.2 nM | 119 nM | – |
| Cc1cnn(C)c1-c1cc(-c2c(C)noc2C)cc2[nH]c(=O)n(C)c12 [Example 8, 7-(1,4-dimethyl-1H-pyrazol-5-yl)-5-(3,5-dimethylisoxazol-4-yl)-1-methyl-1H-benzo[d]imidazol-2(3H)-one] | 168 nM | 117 nM | 241 nM | 511 nM | – |
| Cc1ccc2ncccc2c1-c1cc(-c2c(C)noc2C)cc2[nH]c(=O)[nH]c12 (single isomer, unassigned) [Example 14] | – | – | 14 nM | – | 9.54 nM |
| Cc1noc(C)c1-c1cc(-c2c(C)noc2C)c2oc(=O)[nH]c2c1 [Example 10, 5,7-bis(3,5-dimethylisoxazol-4-yl)benzo[d]oxazol-2(3H)-one] | 396 nM | 1030 nM | 196 nM | 313 nM | – |
| Cc1noc(C)c1-c1cc(-c2c(C)noc2C)c2c(c1)[nH]c(=O)n2C [Example 9] | 227 nM | 204 nM | 270 nM | 497 nM | – |
| Cc1ccc2ncccc2c1-c1cc(-c2c(C)noc2C)cc2[nH]c(=O)n(C)c12 [Example 7, 5-(3,5-dimethylisoxazol-4-yl)-1-methyl-7-(6-methylquinolin-5-yl)-1H-benzo[d]imidazol-2(3H)-one] | 101 nM | 17.5 nM | 37.3 nM | 121 nM | – |
| Cc1ccc2ncccc2c1-c1cc(-c2c(C)noc2C)cc2[nH]c(=O)[nH]c12 (single isomer, unassigned) [Example 13] | – | – | 45.2 nM | – | 51.6 nM |
| Cc1ccc2ncccc2c1-c1cc(-c2c(C)noc2C)cc2[nH]c(=O)oc12 [Example 11, 5-(3,5-dimethylisoxazol-4-yl)-7-(6-methylquinolin-5-yl)benzo[d]oxazol-2(3H)-one] | 174 nM | 421 nM | 222 nM | 438 nM | – |
| Cc1ccc2ncccc2c1-c1cc(-c2c(C)noc2C)cc2[nH]c(=O)[nH]c12 (racemic) [Example 2, 6-(3,5-dimethylisoxazol-4-yl)-4-(6-methylquinolin-5-yl)-1H-benzo[d]imidazol-2(3H)-one] | 119 nM | 19 nM | 30.8 nM | 135 nM | – |
